Assay results: ChEMBL document CHEMBL3885881, “DrugMatrix”

Species: Rattus norvegicus
Assay: DrugMatrix - Regimen: Daily Repeat
Assay type: toxicity, organism-based, Sprague-Dawley
Design: regimen Daily Repeat, gender Male, age 6-8 weeks
Conditions: in vivo, po, route oral GAVAGE, […]; for ABSOLUTE BASOPHIL / ABSOLUTE EOSINOPHIL / ABSOLUTE LYMPHOCYTE / ABSOLUTE MONOCYTE / ABSOLUTE SEGMENTED NEUTROPHIL / BASOPHIL / EOSINOPHIL / ERYTHROCYTE COUNT / HEMATOCRIT / HEMOGLOBIN / LEUKOCYTE COUNT / LYMPHOCYTE / MEAN CORPUSCULAR HEMOGLOBIN / MEAN CORPUSCULAR HEMOGLOBIN CONCENTRATION / MEAN CORPUSCULAR VOLUME / MONOCYTE / NEUTROPHIL / NUCLEATED RED BLOOD CELLS / PLATELET COUNT: tissue Blood; for ALANINE AMINOTRANSFERASE / ALBUMIN / ALKALINE PHOSPHATASE / ASPARTATE AMINOTRANSFERASE / BLOOD UREA NITROGEN / CARBON DIOXIDE / CHLORIDE / CHOLESTEROL / CREATINE PHOSPHOKINASE / CREATININE / GLUCOSE / LACTATE DEHYDROGENASE / LIPASE / PHOSPHORUS / POTASSIUM / SODIUM / TOTAL BILIRUBIN / TOTAL PROTEIN / URIC ACID: tissue Plasma
[1] = 25 mg/kg, 120 h, dose level Low, time 5 day
[2] = 800 mg/kg, 72 h, dose level High, time 3 day
[3] = 800 mg/kg, 120 h, dose level High, time 5 day

CC(C)(C)NC(=O)[C@H]1CC[C@H]2[C@@H]3CC[C@H]4NC(=O)C=C[C@]4(C)[C@H]3CC[C@]12C [FINASTERIDE]
ABSOLUTE BASOPHIL [1]: 0 CELLS/uL | ABSOLUTE EOSINOPHIL [1]: 34.67 CELLS/uL | ABSOLUTE LYMPHOCYTE [1]: 7140 CELLS/uL | ABSOLUTE MONOCYTE [1]: 141.33 CELLS/uL | ABSOLUTE SEGMENTED NEUTROPHIL [1]: 817.33 CELLS/uL | BASOPHIL [1]: 0% | EOSINOPHIL [1]: 0.67% | ERYTHROCYTE COUNT [1]: 5.11 x10E6/uL | HEMATOCRIT [1]: 33.07% | HEMOGLOBIN [1]: 13.03 G/DL | LEUKOCYTE COUNT [1]: 8.13 x10E3/uL | LYMPHOCYTE [1]: 87.67% | MEAN CORPUSCULAR HEMOGLOBIN [1]: 25.53 pg | MEAN CORPUSCULAR HEMOGLOBIN CONCENTRATION [1]: 39.4 G/DL | MEAN CORPUSCULAR VOLUME [1]: 64.77 fL | MONOCYTE [1]: 1.67% | NEUTROPHIL [1]: 10% | NUCLEATED RED BLOOD CELLS [1]: 0 /100WBC | PLATELET COUNT [1]: 1248.33 x10E3/uL | ALANINE AMINOTRANSFERASE [1]: 61 u/L | ALBUMIN [1]: 4.23 G/DL | ALKALINE PHOSPHATASE [1]: 355.67 u/L | ASPARTATE AMINOTRANSFERASE [1]: 74.67 u/L | BLOOD UREA NITROGEN [1]: 11.67 mg/dL | CARBON DIOXIDE [1]: 32.33 mmol/L | CHLORIDE [1]: 103 MEQ/L | CHOLESTEROL [1]: 87.33 mg/dL | CREATINE PHOSPHOKINASE [1]: 247.33 u/L | CREATININE [1]: 0.43 mg/dL | GLUCOSE [1]: 152 mg/dL | LACTATE DEHYDROGENASE [1]: 82.33 u/L | LIPASE [1]: 11 u/L | PHOSPHORUS [1]: 11.7 mg/dL | POTASSIUM [1]: 6.04 MEQ/L | SODIUM [1]: 146.03 MEQ/L | TOTAL BILIRUBIN [1]: 0.17 mg/dL | TOTAL PROTEIN [1]: 5.93 G/DL | URIC ACID [1]: 0.8 mg/dL | ABSOLUTE BASOPHIL [2]: 0 CELLS/uL | ABSOLUTE EOSINOPHIL [2]: 0 CELLS/uL | ABSOLUTE LYMPHOCYTE [2]: 7333 CELLS/uL | ABSOLUTE MONOCYTE [2]: 111.33 CELLS/uL | ABSOLUTE SEGMENTED NEUTROPHIL [2]: 889 CELLS/uL | BASOPHIL [2]: 0% | EOSINOPHIL [2]: 0% | ERYTHROCYTE COUNT [2]: 5.15 x10E6/uL | HEMATOCRIT [2]: 31.93% | HEMOGLOBIN [2]: 12.77 G/DL | LEUKOCYTE COUNT [2]: 8.33 x10E3/uL | LYMPHOCYTE [2]: 88.33% | MEAN CORPUSCULAR HEMOGLOBIN [2]: 24.83 pg | MEAN CORPUSCULAR HEMOGLOBIN CONCENTRATION [2]: 40 G/DL | MEAN CORPUSCULAR VOLUME [2]: 62.17 fL | MONOCYTE [2]: 1.33% | NEUTROPHIL [2]: 10.33% | NUCLEATED RED BLOOD CELLS [2]: 0 /100WBC | PLATELET COUNT [2]: 974.67 x10E3/uL | ALANINE AMINOTRANSFERASE [2]: 103.67 u/L | ALBUMIN [2]: 3.93 G/DL | ALKALINE PHOSPHATASE [2]: 409.67 u/L | ASPARTATE AMINOTRANSFERASE [2]: 102.67 u/L | BLOOD UREA NITROGEN [2]: 11 mg/dL | CARBON DIOXIDE [2]: 26 mmol/L | CHLORIDE [2]: 102.33 MEQ/L | CHOLESTEROL [2]: 70.33 mg/dL | CREATINE PHOSPHOKINASE [2]: 348.33 u/L | CREATININE [2]: 0.1 mg/dL | GLUCOSE [2]: 149 mg/dL | LACTATE DEHYDROGENASE [2]: 104.67 u/L | LIPASE [2]: 10.67 u/L | PHOSPHORUS [2]: 11.3 mg/dL | POTASSIUM [2]: 5.02 MEQ/L | SODIUM [2]: 144 MEQ/L | TOTAL BILIRUBIN [2]: 0.1 mg/dL | TOTAL PROTEIN [2]: 5.37 G/DL | URIC ACID [2]: 0.87 mg/dL | ABSOLUTE BASOPHIL [3]: 0 CELLS/uL | ABSOLUTE EOSINOPHIL [3]: 85.67 CELLS/uL | ABSOLUTE LYMPHOCYTE [3]: 6528 CELLS/uL | ABSOLUTE MONOCYTE [3]: 164.33 CELLS/uL | ABSOLUTE SEGMENTED NEUTROPHIL [3]: 922 CELLS/uL | BASOPHIL [3]: 0% | EOSINOPHIL [3]: 1% | ERYTHROCYTE COUNT [3]: 5.25 x10E6/uL | HEMATOCRIT [3]: 33.4% | HEMOGLOBIN [3]: 12.97 G/DL | LEUKOCYTE COUNT [3]: 7.7 x10E3/uL | LYMPHOCYTE [3]: 85% | MEAN CORPUSCULAR HEMOGLOBIN [3]: 24.7 pg | MEAN CORPUSCULAR HEMOGLOBIN CONCENTRATION [3]: 38.83 G/DL | MEAN CORPUSCULAR VOLUME [3]: 63.67 fL | MONOCYTE [3]: 2% | NEUTROPHIL [3]: 12% | NUCLEATED RED BLOOD CELLS [3]: 0 /100WBC | PLATELET COUNT [3]: 1238.33 x10E3/uL | ALANINE AMINOTRANSFERASE [3]: 55.33 u/L | ALBUMIN [3]: 4.33 G/DL | ALKALINE PHOSPHATASE [3]: 297 u/L | ASPARTATE AMINOTRANSFERASE [3]: 76.67 u/L | BLOOD UREA NITROGEN [3]: 13.67 mg/dL | CARBON DIOXIDE [3]: 32.33 mmol/L | CHLORIDE [3]: 103 MEQ/L | CHOLESTEROL [3]: 66.33 mg/dL | CREATINE PHOSPHOKINASE [3]: 232.33 u/L | CREATININE [3]: 0.12 mg/dL | GLUCOSE [3]: 157.67 mg/dL | LACTATE DEHYDROGENASE [3]: 64.33 u/L | LIPASE [3]: 10.33 u/L | PHOSPHORUS [3]: 11.1 mg/dL | POTASSIUM [3]: 5.99 MEQ/L | SODIUM [3]: 147.03 MEQ/L | TOTAL BILIRUBIN [3]: 0.1 mg/dL | TOTAL PROTEIN [3]: 6.07 G/DL | URIC ACID [3]: 0.5 mg/dL
